The source of these data is US20250066468A1, “LIPOSOME ENCAPSULATED AFFINITY DRUG” (L.E.A.F. HOLDINGS GROUP LLC, priority 2014, published 2025).

The solubility is the dissolved amount per volume that the medium holds.

For series [1] the following is noted: neutral pH; cited from earlier work.
The subject of series [2] is phosphorylated p38 in SL0003 lung cancer cells. Briefly: p38 phosphorylation (PhosFlow). The format is cell-based. As to conditions: 30 minutes, pemetrexed at 10 μM and 50 μM. On the procedure:
A second measure of sample liposome entering the cell is intracellular activation pathways. Cells respond to ligands binding to their receptors by activating kinases, in this case p38. The activated kinases can be measured by flow cytometry. The cells are incubated with sample liposome for 30 minutes and then lysed with a mild detergent. The activated p38 kinase is detected with an antibody by flow cytometry. A shift under the red line gate indicates a higher level of phosphorylated p38 (See FIG. 18A and 18BG). Cancer cells may have a higher basal level of activated kinases.
In addition, for FIG. 17, measuring p38 phosphorylation (PhosFlow) SL0003, normal colon cells, and normal breast cells were seeded at 10,000 cells/well. Cells were treated with: Fresh Pemetrexed ([…]), LEAF-001 (Liposome 070715 MPF; 5traut/50 Mab, 15traut/50Mab, 45traut/50Mab) (13.33× dilution), anti-folate receptor alpha (MABFRA H/L 1.01 mg/ml) (13.33× dilution) to determine the effect of the antibody in sample liposome, or no treatment. The cells were gently mixed and quickly placed in incubator. At each time point (30 minutes-4 hours), the plates were removed from the incubator and immediately fixed with formaldehyde for a final concentration of 2%. The plates were incubated for 5 minutes at room temperature. 25 μl of media was removed. […] The cells were read on the flow cytometer (in FL2).

Series [3] relates to SL0003 (lung cancer) cells. In words: Cell cycle by propidium iodide DNA staining, flow cytometry. As to conditions: titrated concentrations, day 5. The format is cell-based. The protocol: SL0003 (lung cancer) cells were prepared as described in the Example describing MTS assays (Example 5).
For this assay, the cells were cultured for 4 or 5 days (shown is day 5.). More specifically, […] cells (lung adenocarcinoma) were seeded in 96 well plates and treated the next day with titrated concentrations of LEAF-001 or pemetrexed. At day 5, cells were lysed with FACS buffer, 0.2% triton X-100, 0.3% formaldehyde. The DNA was stained with Propidium Iodine for 30 minutes […] to evaluate cell cycle
The cells were washed and evaluated by flow cytometry (FL2). FIG. 22A depicts a schematic showing the cell cycle. By inhibiting the formation of precursor purine and pyrimidine nucleotides, pemetrexed prevents the formation of DNA and RNA, which are required for the growth and survival of both normal cells and cancer cells.

A further series has as its system CD34+ stem cells. In words: Neutrophil differentiation of CD34+ stem cells, flow cytometry. The format is cell-based, human. The conditions noted are these: pemetrexed 2-50 μM; day 2; n=4 donors. On the procedure: Experiments were performed as follows: CD34+ stem cells were obtained from ATCC. CD34+ cells were thawed at 37° C. for 1 minute. While on ice, the cells were transferred to cold stem cell medium (“StemSpan SFEM”-Stem Cell Tech. cat. #9650), 10% heat […] fetal bovine serum (HI FBS.) Each vial contained approximated 5×10^5 cell/ml. The cells were placed in 96 well tissue culture plates 35,000 cell/well. The neutrophils GROWTH media contained 100 ng/ml of stem cell factor human (SCF-Sigma H8416, lot #MKB[…]), 20 ng/ml of granulocyte colony-stimulation factor, human (G-CSF-Sigma H5541, lot #SLB[…]), 10 ng/ml of IL3 recombinant human (Sigma SRP3090, lot #1008AFC13) in […] media as above. […] The cells shown in the circle on the plots are maturing neutrophils expressing Mac-1 and CD34.
(A flow cytometer gives signals particle by particle.)

Turning to `Nc1nc2[nH]cc(CCc3ccc(C(=O)N[C@@H](CCC(=O)O)C(=O)O)cc3)c2c(=O)[nH]1` [pemetrexed, Pemetrexed disodium heptahydrate], the solubility in series [1] is 100 mg/mL. The “effect on p38 activation” value in series [2] is given as “reduces p38 activation”. The “cell cycle effect (accumulation in S phase)” value in series [3] is reported as “induces cells to accumulate in S phase”. Also, the neutrophil differentiation entry in the series with CD34+ stem cells is listed as “neutrophil differentiation is inhibited”.
